Tested on: Wister rats
Assay: Confirmation of pharmacological activity: blood glucose level of rats after subcutaneous injection
Type: in vivo, rat
Details: 1.6 U/kg, 15, 30, 60 and 120 minutes after injection
Protocol: After anesthetic, Nembutal, was injected to Wister rats (male, 8 week-old, weight: about 250 g) fasted for one day, blood was taken from the tail vein. This is used as a base (control). […] The resultant liquid droplets were collected and subcutaneously injected into the rats in a dose of 1.6 U/kg. Blood was taken from the tail vein 15, 30, 60 and 120 minutes after the injection. The blood samples thus taken were centrifugally separated and the blood glucose levels of the obtained serums were analyzed (one group consisting of 6 rats). The same experiment was performed by using an insulin solution having no additives and not ejected in accordance with the thermal inkjet system as a Comparative Example.

Question: Which “effect in reducing blood glucose level” value does the source give for “insulin: insulin solution having no additives and not ejected in accordance with the thermal inkjet system (Comparative Example of Example 25)” here?
Answer: swiftly decreased
